This data set can be described thus: Human HepG2 cell viability assay in 384 well format. The data set is classed as toxicity, cell-based. Details: dose 125 nL, time 70.5 hour; cytotoxicity at 70.5 h: concentration not given beside the values. As to conditions: HepG2 cells, read-out: Inhibition.
Consider `CCc1nccn1CC(=O)N1C[C@H]2CC[C@@H]1CN(c1ncccn1)C2`, for which the cytotoxicity at 70.5 h is -0.942%.
Next, `CN1CC(c2ccccc2)CC12CCN(C(=O)c1cccnc1)CC2` (configuration not stated): -9.06%; `Cc1oc(C(C)C)cc1C(=O)N1C[C@H]2CC[C@@H]1CN(c1ncccn1)C2`: -13.7%; `COc1ccc(S(=O)(=O)N[C@H]2CN(C(C)=O)C[C@@H]2C(C)C)cc1F`: -12.5%.
For `CCCc1cc(C(=O)N[C@@H](CO)[C@@H](O)c2ccccc2)n(C)n1` the value was 0.909%.
`CCc1cn[nH]c1C1CCN(c2cc(C)c3ccc(OC)cc3n2)CC1`: the cytotoxicity at 70.5 h is 9.99%.
For `CCc1nc(C)sc1CN(Cc1ccncc1)C1CCN(C)CC1` the value was -6.03%; for `CC1(C)CC(CN2CCC3(CCC(=O)N(CCO)C3)CC2)CCO1` (configuration not stated), -10.6%.
Next, `Cc1ccc(C(=O)N2CCC3(CCC(=O)N(CC(C)O)C3)CC2)c(O)c1` (configuration not stated): -7.72%; `CC(C)Cn1cncc1-c1nc2c([nH]1)CCCNC2=O`: -6.28%; `N[C@H]1CC[C@@H](CN2CCCn3nc(CNC(=O)C4CCC4)cc3C2)CC1`: -9.19%.
With `CC(C)C(O)C1CCN(c2ccnc(C(=O)NCc3ccco3)c2)CC1` (configuration not stated), the cytotoxicity at 70.5 h was -14.1%.
For `CC(=O)N1CCCC(C(=O)NCc2noc(Cc3ccccc3)n2)C1` (configuration not stated) the value was -11.1%.
In the case of `CC(C)Cc1cc(C(=O)N2CCC(C(=O)N3CCOCC3)CC2)on1`, the cytotoxicity at 70.5 h is -7.8%.
For `Cc1cccc(CNC2CC(=O)N(CCc3cccc(Cl)c3)C2)n1` (configuration not stated) the value was -8.39%.
Consider `COc1cnc(N2C[C@H](CO)C[C@H](CN3CCOCC3)C2)nc1`, for which the cytotoxicity at 70.5 h was -2.01%.
Take `CN(C)CCCNC(=O)C(c1cccc(F)c1)N(C)C` (configuration not stated): the cytotoxicity at 70.5 h is -2.43%.
Consider `c1ccc(CN2CCC(NCCSc3cnn[nH]3)CC2)cc1`, for which the cytotoxicity at 70.5 h turned out to be 2.48%.
Next, `COCCN(Cc1ccccc1Cl)C(=O)c1c(C)cc(C)[nH]c1=O`: -2.7%; `COCc1noc(CCNc2ncnc3c2CCNCC3)n1`: -8.6%.
As for `COCCC1(C(=O)O)CCCN(C(=O)c2cc(C)oc2C)C1` (configuration not stated), the cytotoxicity at 70.5 h is -15.5%.
Next, `O=C(NCc1sc2ccccc2c1Cl)c1cc2n(n1)CCNC2`: 18.3%; `O=C(c1ccc2c(c1)OCO2)N1CCCC(Nc2ccc(F)cc2)C1` (configuration not stated): -2.98%.
Turning to `Cn1ncc2c(NCC3CCS(=O)(=O)C3)nc(C3CCCC3)nc21` (configuration not stated), the cytotoxicity at 70.5 h is -3.73%.
Next, `Cc1n[nH]c(SCC(=O)N2C[C@H]3CC[C@@H]2CN(c2ncccn2)C3)n1`: -4.86%; `O=C1CC(c2ncc(-c3ccc4c(c3)OCCO4)[nH]2)CN1C1CC1` (configuration not stated): -7.8%.
Next, `OC1CCCN(Cc2cn(CC3CCN(C4CCSCC4)CC3)nn2)C1` (configuration not stated): -2.84%; `CS(=O)(=O)N1C[C@H]2CNC[C@@]2(C(=O)NCCOc2ccccc2)C1`: -1.07%.
As for `Cc1nnc(NC(=O)N2CCCN(C3CCCC3)CC2)s1`, the cytotoxicity at 70.5 h was -2.92%.
Next, `CCSc1ncc(CN2CCN(c3nc(C)cnc3C)CC2)cn1`: 23.3%.
Regarding `NC(=O)CN1CC2(CCC1=O)CCN(C(=O)c1ccccc1F)CC2`, the cytotoxicity at 70.5 h worked out at 33.9%.
For `CCOC(=O)c1cccc(N2CCCC3(CCC(=O)N(C4CC4)C3)C2)n1` (configuration not stated) the value was -2.93%; for `CCc1c(C)nc(N)nc1N1CCCC(c2nc(CCOC)no2)C1` (configuration not stated), 4.51%; for `COCc1noc(Cn2ncn3cccc3c2=O)n1`, 6.69%.
For `Cc1n[nH]c(C)c1-c1cc(-c2cccc(O)c2)nc(N)c1C#N` the value was -8.76%; for `CCCc1cnc(C)nc1N1CCC(Cc2ccc(CO)cc2)C1` (configuration not stated), -10.5%.
Next, `CC(=O)N[C@@H](CC(C)C)C(=O)N1CCC(n2cc(C(C)(C)N)nn2)CC1`: -2.68%.
